# Measured values reported in patent US6465527B1, “Iodinated hydrocarbon pesticide” (priority 1999, dated 2002).
# “Also recorded” adds a separate entry of the source.
# Tests used:
# Assay type in all cases: in vivo
# [1] = system: Cowpea weevil, Callosobruchus maculatus (F.); assay: Fumigant toxicity, Cowpea weevil; set-up: concentration or dose not given beside the values; conditions: 30 adults
# Experimental: Shown in Table 2 is the toxicity of both monoiodinated and diiodinated hydrocarbons to the German and American cockroach and the Cowpea weevil after 24 hours of exposure.
# Heterodera glycines = assay: Greenhouse nematicide test, diiodinated C2-C8 hydrocarbons in infested field soil (Experiments 1 and 2)
# Meloidogyne arenaria [2] = assay: as above
# [3] = system: 'Brim' soybean [Glycine max]; assay: Soybean growth in treated soil (Experiments 1 and 2)
# Experimental: Additionally, the nematicidal properties of iodinated hydrocarbons were investigated in greenhouse experiments with field soil infested with Meloidogyne arenaria and Heterodera Glycines. Chemicals were added directly to infested solid at rates <100 mg/Kg soil. Treated soil was kept moist (approximately 60 percent field capacity) and uncovered for 7-10 days when samples were collected, and the pots were planted with ‘Brim’ soybean, Glycine max. […] 1,2-diiodoethane (C2), 1,3-diiodopropane (C3), 1,4-diiodobutane (C4), 1,5-diiodopentane (C5), 1,6-diiodohexane (C6), and […] were applied to soil rates of 2.5, 5.0, 7.5, and 10 mg/Kg soil. All rates of C2 and C8 were ineffective in reducing M. arenaria juvenile (J2) populations in preplant samples. This was also true for C2 and J2 populations of H. glycines; however, […] rates ≧5.0 mg suppressed J2 populations of H. glycines. […] H. glycines J2 numbers in final soil samples were generally inversely related to rates for C3-C8. […] Applications of C3-C6 to soil increased shoot weights in a manner directly related to dosages but only in a curvilinear pattern.
# In this experiment, the nematicidal properties of various diiodinated hydrocarbons were compared. The nematicidal properties of diiodinated C2-C8 normal hydrocarbons was assessed in a greenhouse experiment with field soil infested with Meloidogyne arenaria [Ma] and Heterodera glycines [Hg]. 1,2-diiodoethane [C2], 1,3-diiodopropane [C3], 1,4-diiodobutane [C4], 1.5-diiodopentane [C5], 1,6-diiodohexane [C6] and 1,8-diiodooctane [C8] were applied to soil at rates of 2.5, 5.0, 7.5, and 10.0 mgs/kg soil. The potted soil was kept moist in a greenhouse for 10 days when preplant samples were collected for analysis, and the pots were planted with ‘Brim’ soybean [Glycine max]. After 7 weeks of growth, the plants were removed and final soil samples taken. Data was collected on weights of fresh roots and shoots, root galling by Ma, and numbers of nematodes in soil and roots. All rates of C2 and C8 were ineffective in reducing Ma juvenile [J2] populations in the preplant samples. This was also true for C2 and J2 populations of Hg; however, C8 rates ≧5.0 mg suppressed J2 populations of Hg. […] Hg J2 numbers in final soil samples were generally inversely related to rates for C3-C8. This pattern of suppression in J2 numbers was also applicable to Ma in the final soil samples but only for C3-C6. […] Applications of C3-C6 to soil increased shoot weights in a manner directly related to dosages but non-linear in pattern.
# Meloidogyne arenaria [4] = assay: Greenhouse nematicide test, iodomethane vs ethylene diiodide (Experiment 5)
# Experimental: (§1) In this experiment, the nematotoxic properties of ethylene diiodide were compared to that of methyl iodide. The nematicidal efficacies of iodomethane [IM] and ethylene diiodide [EDI] were compared in a greenhouse experiment using field soil infested with Meloidogyne arenaria, Pratylenchus brachyurus, and Paratrichodorus christiei.
# (§2) Each compound was added to soil at rates of 100, 200, 300 and 400 mg s/kg of soil. The soil was potted and kept moist for two weeks when it was planted with ‘Brim’ soybean after taking samples for nematological analyses. After eight weeks of growth, the plants were removed from the pots and soil samples taken. Data was collected on weights of fresh roots and shoots, general appearance of roots [root condition index] and root gall formation by M. arenaria. All EDI rates eliminated M. arenaria juveniles [J2] and populations of the other nematodes in the preplant samples; IM reduced J2 numbers by 50-70%, eliminated P. christiei with the 400 mg rate, but had no effect on P. brachyurus. […] The general appearance of roots was improved by EDI at rates ≦300 mg, but MI had no effect on the variable. […] M. arenaria J2 populations in roots were reduced by 60-70% by MI treatments, but the compound had no effect on root populations of P. brachyurus. MI had no effect on J2 populations in the final soil samples, although it suppressed P. christiei, by 50-70%.
# [5] = system: Paratrichodorus christiei; assay: as above; conditions: all rates (100-400 mg/kg of soil)
# Experimental: as §1, §2
# Pratylenchus brachyurus = assay: as above; conditions: rates 100-400 mg/kg of soil
# Experimental: as §1, §2
# 'Brim' soybean = assay: Soybean growth and root condition in treated soil (Experiment 5)
# Experimental: as §1, §2
# [6] = all rates (2.5, 5.0, 7.5, 10 mg/Kg soil)
structure (smiles),measurement,setting,value
"ICCI [1,2-diiodoethane]","% Mortality after 24 h exposure, Cowpea weevil",[1],100%
same,H. glycines J2 populations in preplant samples,Heterodera glycines; [6],ineffective
same,H. glycines J2 numbers in final soil samples,"Heterodera glycines; final soil samples after soybean growth, rates 2.5-10 mg/kg soil, listed as C2",either no change in H. glycines J2 numbers or in increased numbers; also recorded: either no change in Hg J2 numbers or in increased numbers
same,H. glycines J2 populations in preplant samples,Heterodera glycines; rates ≧5.0 mg,suppressed
same,M. arenaria juvenile (J2) populations in preplant samples,Meloidogyne arenaria [2]; [6],ineffective
same,M. arenaria J2 numbers in final soil samples,"Meloidogyne arenaria [2]; final soil samples after soybean growth, rates 2.5-10 mg/kg soil",increased directly with C2 dosage
same,Shoot weights of soybean,[3]; 2.5 mg rate,increased shoot weights slightly
same,Shoot weights of soybean,[3]; rates higher than 2.5 mg,no significant effect
same,M. arenaria juveniles [J2] in preplant samples,"Meloidogyne arenaria [4]; all rates (100, 200, 300, 400 mg/kg of soil)",eliminated
same,Galls in roots of plants from treated soil (M. arenaria),Meloidogyne arenaria [4]; soybean after eight weeks,no galls
same,P. christiei populations in preplant samples,[5],eliminated
same,P. brachyurus populations in preplant samples,Pratylenchus brachyurus,eliminated
same,Phytotoxicity to soybean,'Brim' soybean; 400 mg,phytotoxic
same,General appearance of roots [root condition index],'Brim' soybean; rates ≦300 mg,improved
